Assays:
[1] = tested on: lung cancer; settings: cited from earlier work; for incidence of lung cancer: carotenoid-administered mice, incidence in control mice without carotenoid administration taken as 100%
[2] = tested on: liver cancer; settings: carotenoid-administered mice; incidence in control mice without carotenoid administration taken as 100%; cited from earlier work
[3] = tested on: skin cancer; settings: carotenoid-administered mice; incidence in control mice without carotenoid administration taken as 100%; cited from earlier work
[4] = tested on: lipid peroxidation in rat brain homogenate; assay: in vitro anti-peroxidation activity: lipid peroxidation in rat brain homogenate (TBA, A532); format: biochemical; settings: for IC50: concentration halving A532 vs non-addition group, ascorbic acid 100 μM, pH 7.4, 37° C., 1 hr, read-out: IC50 (μM), inhibitory effect on lipid peroxidation in rat brain homogenate; for inhibitory effect on lipid peroxidation (in words): rat brain homogenate, in vitro
Protocol: Although various carotenoids have a wide variety of physiological activities and effects, it is believed that activity to inhibit peroxidation of lipids in the living body caused by oxygen radicals is the basis for all activities/effects. Therefore, in vitro inhibitory effects of the two carotenoids synthesized in Example 14 on lipid peroxidation caused by free radicals were examined using rat brain homogenate. This assay was conducted basically according to the method of Kubo et al. (Kubo, K., Yoshitake, Y., Kumada, K., Shuto K., Nakamizo, N. “Radical scavenging action of flunarizine in rat brain in vitro”. Arch. Int. Pharmacodyn. Ther. 272, 283-295, 1984). Briefly, 0.05 ml of methanol solution of a test sample, 0.1 ml of 1 mM ascorbic acid (final concentration 100 μM) and 0.05 ml of H2O were added to 0.6 ml of 100 mM phosphate buffer (pH 7.4) and pre-incubated at 37° C. for 5 min. Then, 0.2 ml of 2.5% (w/v) rat brain homogenate was added thereto to start reaction, followed by incubation at 37° C. for 1 hr under shaking. One milliliter of a mixed solution containing 20% (w/v) trichloroacetic acid, 0.5% (w/v) 2-thiobarbituric acid and 0.2 N HCl was added to the above reaction solution to terminate the reaction. The resultant solution was boiled at 100 ° C. for 30 min for color development. After cooling, the solution was centrifuged at 3000 rpm for 5 min. Absorbance at 532 nm (A532) of the resultant supernatant was measured. The concentration of test sample which is required to decrease the A532 of test sample addition group to one half of the A532 of test sample non-addition group was calculated as IC50. This value was taken as lipid peroxidation inhibitory effect in rat brain homogenate.

[5] = compared with β-carotene; cited from earlier work

| IC50 [4] [µM] | Compound | incidence of lung cancer [1] [%] | incidence of liver cancer [2] [%] | incidence of skin cancer [3] [%] | other results |
| --- | --- | --- | --- | --- | --- |
|  | CC1=CCCC(C)(C)C1/C=C/C(C)=C/C=C/C(C)=C/C=C/C=C(C)/C=C/C=C(C)/C=C/C1=C(C)CCCC1(C)C (stereo not drawn) [α-carotene] | 40 | 50 |  |  |
|  | CC(C)=CCC/C(C)=C/C=C/C(C)=C/C=C/C(C)=C/C=C/C=C(C)/C=C/C=C(C)/C=C/C=C(\C)CCC=C(C)C [lycopene] |  | 100 | 10 | inhibition of lung cancer (in words) ([1]; comparison of the three carcinogenesis models): highly effective in inhibiting lung cancer |
| 4.8 | CC1=C(/C=C/C(C)=C/C=C/C(C)=C/C=C/C=C(C)/C=C/C=C(C)/C=C/C2=C(C)C(=O)CC(O)C2(C)C)C(C)(C)C(O)CC1=O (single isomer, unassigned) [2,2′-Dihydroxycanthaxanthin, 2,2′-dihydroxy-β,β-carotene-4,4′-dione] |  |  |  | inhibitory effect on lipid peroxidation (in words) [4]: strong inhibitory effects on lipid peroxidation |
| > 100 | CC1=C(/C=C/C(C)=C/C=C/C(C)=C/C=C/C=C(C)/C=C/C=C(C)/C=C/C2=C(C)CCCC2(C)C)C(C)(C)CCC1 [β-Carotene, β-carotene] | 139 | 70 |  |  |
| 8.1 | CC1=C(/C=C/C(C)=C/C=C/C(C)=C/C=C/C=C(C)/C=C/C=C(C)/C=C/C2=C(C)C(=O)CC(O)C2(C)C)C(C)(C)CCC1=O (single isomer, unassigned) [2-Hydroxycanthaxanthin, 2-hydroxy-β,β-carotene-4,4′-dione] |  |  |  | inhibitory effect on lipid peroxidation (in words) [4]: strong inhibitory effects on lipid peroxidation |
|  | CC1=C(/C=C/C(C)=C/C=C/C(C)=C/C=C/C=C(C)/C=C/C=C(C)/C=C/C2=C(C)C[C@@H](O)CC2(C)C)C(C)(C)CCC1 [β-cryptoxanthin] |  |  |  | intake ratio into the living body relative to β-carotene [5]: 10 times |
|  | CC1=C(/C=C/C(C)=C/C=C/C(C)=C/C=C/C=C(C)/C=C/C=C(C)/C=C/C2=C(C)C(=O)[C@@H](O)CC2(C)C)C(C)(C)C[C@H](O)C1=O [astaxanthin] | 70 | 30 | 100 |  |
|  | fucoxanthin |  | 30 | 10 |  |
| 50 | CC1=C(/C=C/C(C)=C/C=C/C(C)=C/C=C/C=C(C)/C=C/C=C(C)/C=C/C2=C(C)C(=O)CCC2(C)C)C(C)(C)CCC1=O [Canthaxanthin] |  |  |  |  |
|  | CC1=C[C@H](O)CC(C)(C)[C@H]1/C=C/C(C)=C/C=C/C(C)=C/C=C/C=C(C)/C=C/C=C(C)/C=C/C1=C(C)C[C@@H](O)CC1(C)C [lutein] | 70 | 50 |  |  |

Source: patent US7695931B2, “Carotenoid hydroxylase gene, method for preparing hydroxylated carotenoid, and novel geranylgeranyl pyrophosphate synthase” (Kirin Holdings Kabushiki Kaisha, priority 2003, dated 2010)
